Test results taken from ChEMBL document CHEMBL5236548, “Marine Natural Products: A Potential Source of Anti-hepatocellular Carcinoma Drugs” (J Med Chem, 2021).

Experiments:
[1] = test system: Hep 3B2; experiment: Cytotoxicity against human Hep3B cells measured after 1 hr by SRB assay; format: functional, cell-based
[2] = Cytotoxicity against human Huh-7D12 cells measured after 1 hr by SRB assay; format: functional, cell-based; details: Huh-7D12, 1 h
[3] = test system: SK-HEP1; experiment: Cytotoxicity against human SK-HEP1 cells measured after 1 hr by SRB assay; format: functional, cell-based; details: SK-HEP1, 1 h
[4] = test system: HepG2; experiment: Cytotoxicity against human HepG2 cells measured after 1 hr by SRB assay; format: functional, cell-based; details: HepG2, 1 h
[5] = test system: PLC-PRF-5; experiment: Cytotoxicity against human PLC-PRF-5 cells measured after 1 hr by SRB assay; format: functional, cell-based; details: PLC-PRF-5, 1 h
[6] = Antitumor activity against human HCCLM3 cells xenografted in BALB/c nude mouse assessed as inhibition of tumor growth at 20 mg/kg measured for 14 days relative to control; format: functional; details: HCCLM3, 336 h, time 14 day
[7] = […] of cell cycle arrest in human HCCLM3 cells assessed as accumulation of cells at G2/M phase at 25 uM relative to control; format: functional; parameters: scale not given: the % may be the effect or the level left
[8] = […] of cell cycle arrest in human HepG2 cells assessed as accumulation of cells at S phase at 50 uM relative to control; format: functional; parameters: scale not given: the % may be the effect or the level left
[9] = […] of cell cycle arrest in human HepG2 cells assessed as accumulation of cells at G2/M phase at 50 uM relative to control; format: functional; parameters: scale not given: the % may be the effect or the level left
[10] = […] of cell cycle arrest in human HCCLM3 cells assessed as accumulation of cells at S phase at 25 uM relative to control; format: functional; parameters: scale not given: the % may be the effect or the level left
[11] = Antitumor activity against human HCCLM3 cells xenografted in BALB/c nude mouse assessed as reduction in Ki67 at 20 mg/kg measured for 14 days (reference value: 41.67+/-7.22% ); format: functional; parameters: scale not given: the % may be the effect or the level left; details: time 14 day
[12] = test system: SMMC-7721; experiment: Induction of cell cycle arrest in human SMMC-7721 cells assessed as accumulation of cells at G0/G1 phase at 200 nM incubated for 24 hrs relative to control; format: functional
[13] = test system: PLC-PRF-5; experiment: Induction of cell cycle arrest in human PLC-PRF-5 cells assessed as accumulation of cells at G0/G1 phase at 50 nM incubated for 24 hrs relative to control; format: functional
[14] = test system: SMMC-7721; experiment: Antitumor activity against human SMMC-7721 cells xenografted in mouse assessed as reduction in tumor growth at 25 microg/kg administered daily for 40 days relative to control; format: functional; parameters: scale not given: the % may be the effect or the level left; details: dose 25 µg/kg; time 40 day
[15] = test system: PLC-PRF-5; experiment: Induction of cell cycle arrest in human PLC-PRF-5 cells assessed as accumulation of cells at G0/G1 phase at 100 nM incubated for 24 hrs relative to control; format: functional
[16] = test system: PLC-PRF-5; experiment: Induction of cell cycle arrest in human PLC-PRF-5 cells assessed as accumulation of cells at G0/G1 phase at 200 nM incubated for 24 hrs relative to control; format: functional
[17] = test system: SMMC-7721; experiment: Antitumor activity against human SMMC-7721 cells xenografted in mouse assessed as reduction in tumor growth at 50 microg/kg administered daily for 40 days relative to control; format: functional; parameters: scale not given: the % may be the effect or the level left; details: dose 50 µg/kg; time 40 day
[18] = test system: SMMC-7721; experiment: Induction of cell cycle arrest in human SMMC-7721 cells assessed as accumulation of cells at G0/G1 phase at 50 nM incubated for 24 hrs relative to control; format: functional
[19] = test system: SMMC-7721; experiment: Induction of cell cycle arrest in human SMMC-7721 cells assessed as accumulation of cells at G0/G1 phase at 100 nM incubated for 24 hrs relative to control; format: functional
[20] = Cytotoxicity against human HCC cells by SRB assay; format: functional, cell-based
[21] = test system: Bel-7402; experiment: Cytotoxicity against human Bel-7402 cells by SRB assay; format: functional, cell-based
[22] = test system: SMMC-7721; experiment: Cytotoxicity against human SMMC-7721 cells assessed as reduction in cell viability by SRB assay; format: functional, cell-based
[23] = test system: Hep 3B2; experiment: Cytotoxicity against human Hep3B cells by SRB assay; format: functional, cell-based
[24] = Cytotoxicity against human Zip177 cells by SRB assay; format: functional, cell-based
[25] = test system: HepG2; experiment: Antiproliferative activity against human HepG2 cells assessed as reduction in cell viability at 50 ug/ml measured after 24 hrs relative to control; format: functional, cell-based; details: HepG2, 24 h

Q: What does the source list for `C/C=C1/NC(=O)[C@H](Cc2ccccc2)NC(=O)[C@@H](C(C)C)NC(=O)[C@@H]([C@@H](C)CC)NC(=O)[C@H](NC(=O)[C@H](NC(=O)[C@H](CCCN)NC(=O)[C@H]2CCCN2C(=O)[C@H](NC(=O)[C@@H](NC(=O)[C@@H](NC(=O)[C@H](NC(=O)CCCC(C)C)C(C)C)[C@@H](C)O)C(C)C)C(C)C)[C@@H](C)CC)[C@@H](C)OC(=O)[C@H](C(C)C)NC1=O`?
A: IC50 [1]: 350 nM; IC50 [2]: 300 nM; IC50 [3]: 2400 nM; IC50 [4]: 300 nM; IC50 [5]: 5300 nM

Q: What does the source list for `COc1cc2ccnc3c2c(c1OC)NC=C3` [AAPTAMINE]?
A: inhibition in vivo at 20 mg/kg [6]: 40.3%; Activity [7]: 50%; Activity [8]: 50%; Activity [9]: 50%; Activity [10]: 50%; Activity [11]: 72.2%

Q: What does the source list for `CCC/C=C/C=C/C(=O)O[C@H]1/C(=C/C(=O)OC)C[C@H]2C[C@H]([C@@H](C)O)OC(=O)C[C@H](O)C[C@@H]3C[C@H](OC(C)=O)C(C)(C)[C@](O)(C[C@@H]4C/C(=C/C(=O)OC)C[C@H](/C=C/C(C)(C)[C@]1(O)O2)O4)O3` [BRYOSTATIN 1]?
A: Activity [12]: 56%; Activity [13]: 34%; Activity [14]: 32%; Activity [15]: 40%; Activity [16]: 54%; Activity [17]: 39%; Activity [18]: 37%; Activity [19]: 44%

Q: With `COC(=O)[C@H](CCCC(C)C)[C@H]1CC[C@H]2[C@@H]3CC[C@H]4CC(=O)C=C[C@]4(C)[C@H]3CC[C@]12C` [METHYL SPONGOATE] as the compound, how does the IC50 [20] read?
A: Its IC50 is 4400 nM.

Q: And the IC50 [21]?
A: Its IC50 is 1700 nM.

Q: And the IC50 [22]?
A: Its IC50 is 2000 nM.

Q: What about the IC50 [23] of the same compound?
A: Its IC50 is 5000 nM.

Q: What about the IC50 [24] of the same compound?
A: Its IC50 is 3000 nM.

Q: For H-RIRDAIAHGYIVDKV-OH, which IC50 [25] is on record?
A: The IC50 was 28300 nM.
